This is an account of results in PubChem BioAssay AID179 (DTP/NCI, 2004).

This assay concerns CEM cells HIV-1 protection, formazan growth assay. Kind of assay: NCI AIDS Antiviral Assay. The conditions noted are these: for IC50: measured here: growth of uninfected CEM cells. A digest of the protocol: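 Human CEM cells, uninfected and HIV-1-infected, received five drug concentrations, and growth was read by soluble formazan assay. Compounds giving at least 50% protection were retested; reproducible 100% protection defined confirmed active.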

Where “and” joins values, the source holds several entries; their conditions need not be identical. Equal values may be shown once. Calls of active or inactive are those of the source.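 The calls were made as follows: active = compounds giving half or more protection of infected cells from virus-caused growth loss, again on retest; inactive = the rest.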

The term EC50 denotes the concentration that produces a half-maximal response. By IC50 is commonly meant the concentration at which inhibition is half-maximal. Read a low IC50 as greater potency. Regarding `CCCN1CN(C(C(=O)N[C@@H]2C(=O)N3C2SC(C)(C)C3C(=O)O)c2ccc(O)cc2)CSC1=S` (stereo not given in full), the EC50 is more than 479 µM and the half-maximal inhibitory concentration (IC50) stood at 145 µM. Turning to `O=c1oc2ccccc2c(O)c1C(C/C(CCN1CCCC1)=N/O)c1ccccc1` (stereo not given), the EC50 is more than 42.7 µM and the half-inhibitory concentration (IC50) is more than 42.7 µM. Regarding `CC(C)c1ccc(C(c2ccc(OCC(=O)O)cc2)c2ccc(C(C)C)cc(=O)c2O)c(O)c(=O)c1`, the result was inactive.

For the molecule `CCOC(=O)c1[nH]n(-c2ccccc2)c(=O)c1C=NC(=S)c1cccnc1`, the EC50 was more than 200 µM and the half-inhibitory concentration (IC50) amounted to 89.1 µM. As for `Cc1cc2cc3cc(C)c(N)cc3nc2cc1N`, the EC50 is more than 2 µM and the IC50 worked out at 0.661 µM.

On to `CCN1C(=O)C(C)S/C1=N\NC(=O)CSc1nc2ccccc2c(=O)n1CC` (stereo not given), for which the EC50 was more than 200 µM and the concentration for half-maximal inhibition (IC50) is 145 µM. As to `C=CC1ON(C)CCc2cc(OC)c(OC)cc21` (stereo not given), the EC50 is 162 µM and the IC50 is more than 200 µM. As for `CCCCCCCCCCCCOC(=S)NC`, the outcome was inactive.

Turning to `CCOC(=O)C1C(c2ccc(F)cc2)C(C(=O)OCC)C(O)(C(F)(F)F)OC1(O)C(F)(F)F` (stereo not given), the outcome was inactive. Still for that read-out and setting: next, `O=C1[C@H]2C(c3ccccc3)=NN(C(=O)c3ccccc3)[C@H]2C(=O)N1c1ccccc1`: “inactive”. As to `Cc1ccc(Cc2n[nH]c(=O)n2Nc2ccccc2)cc1`, the EC50 was more than 200 µM and the IC50 was more than 200 µM. Consider `COc1ccc2c(c1)CC1COc3cc(OC)ccc3C1O2` (stereo not given), for which the EC50 is more than 200 µM and the IC50 was more than 200 µM.

On to `COc1ccc(N2C(=O)c3cccnc3S2(=O)=O)cc1`, for which the EC50 was more than 200 µM and the IC50 was more than 200 µM.

Turning to `CC(C)(CO)CNc1cc(Cl)nc(N)n1`, the EC50 was more than 200 µM and the IC50 is more than 200 µM. Take `O=C1NC(=O)C(Cc2ccccc2Cl)N1` (stereo not given): the EC50 is more than 200 µM and the IC50 was more than 200 µM. With `Cc1c(C(=O)c2ccccc2)n(COCCCO[Si](C)(C)C(C)(C)C)c(=O)[nH]c1=O`, the EC50 was more than 200 µM and the half-inhibitory concentration (IC50) amounted to 11.7 µM. As for `CCOC(=O)c1c(NC(=O)OC)c(C#N)c2n1CCCCC2`, the EC50 is more than 200 µM and the concentration for half-maximal inhibition (IC50) is more than 200 µM. On to `Cc1[nH]c2ccccc2c1CC/C(=N\Nc1ccccc1)c1ccccc1`, for which the outcome was inactive. As to `CNC(=O)OCCN1c2ccccc2Sc2ccccc21`, the EC50 was more than 200 µM and the IC50 came to 77.6 µM. In the same order, the values of `Cc1cc(=O)n2nc(CSc3n[nH]c(=S)s3)sc2n1` are more than 200 µM and more than 200 µM.

As to `COc1ccc(/C(Cl)=C(\C=O)c2ccc(OC)c(OC)c2)cc1OC`, the concentration giving a half-maximal response (EC50) is more than 251 µM and the IC50 is more than 251 µM. Turning to `COC(=O)C(=O)C(C#N)c1cccc2ccccc12` (stereo not given), the result was inactive. Consider `Cc1ccc2c(n1)C(N1CCC(C)CC1)=CC(=O)C2=O`, for which the outcome was inactive. As to `CCC/C=[N+](\[O-])[C@@H]1CC(n2cc(C)c(=O)[nH]c2=O)OC1CO[Si](C)(C)C(C)(C)C` (stereo not given in full), the EC50 was more than 200 µM and the half-maximal inhibitory concentration (IC50) is 107 µM. On to `O=[N+]([O-])c1ccc(-c2ccc(C3=Nn4c(nnc4-c4ccc(Cl)cc4)SC3)o2)cc1`, for which the EC50 is more than 1.74 µM and the half-inhibitory concentration (IC50) was more than 1.74 µM.

As for `O=c1c2ncn(C3CC(O)C(CO)O3)c2nnn1Cc1ccccc1[N+](=O)[O-]` (stereo not given), the EC50 is more than 200 µM and the IC50 is more than 200 µM. On to `O=[N+]([O-])c1ccc2c3c(cccc13)S(=O)(=O)O2`, for which the EC50 is more than 200 µM and the 50% inhibitory concentration (IC50) is 85.1 µM.

As to `CCOC(=O)Cc1nnc2n(-c3ccccc3)c(=O)c3ccccc3n12`, the EC50 is more than 100 µM and the IC50 is more than 100 µM. For `Cc1cc2c(c(C(=O)O)c1C)-c1cccc(F)c1C2=O`, the result was inactive. For the molecule `Nc1nc(Cl)cc(NCC2(O)CCC2)n1`, the EC50 is more than 200 µM and the IC50 is more than 200 µM. `Cc1ccc(OCCn2cc(Nc3ccccc3)c(=O)[nH]c2=O)cc1`: the EC50 is more than 200 µM and the IC50 was more than 200 µM.

As to `CN/C=C(/c1ccc(OC)cc1)C(O)c1ccc(OC)c(OC)c1` (stereo not given), the EC50 was more than 759 µM and the IC50 was determined as 282 µM.

Turning to `COC(=O)c1ccc(/C=C/S(=O)(=O)c2ccccc2)cc1`, the EC50 was more than 4.79 µM and the IC50 was more than 4.79 µM.

For `OCC(O)C(OC1OC(CO)C(O)C(O)C1O)c1nn(-c2ccc(F)cc2)c2nc3cc(Cl)c(Cl)cc3cc12` (stereo not given), the result was inactive. The same measure, in the same setting: next, `CCN(CC)C1=CC(=O)C(=O)c2cccnc21`: “inactive”.

Take `CCC/C(Cl)=N/OC(=O)Nc1cc(C(F)(F)F)ccc1OC`: the EC50 is more than 200 µM and the 50% inhibitory concentration (IC50) turned out to be 3.39 µM. Consider `COC(=O)C(C)Sc1nc2cc(Cl)ccc2s1` (stereo not given), for which the EC50 is more than 200 µM and the IC50 turned out to be 174 µM.

`O=C1NC2(CCCCC2)C2CCCCCC12` (stereo not given): the result was inactive. For the molecule `N#CCc1c(F)c(F)c(F)c(F)c1F`, the EC50 is more than 200 µM and the 50% inhibitory concentration (IC50) is more than 200 µM. In the case of `COC(=O)CC(C(C(C)=O)C(=O)OCc1ccccc1)N1C(=O)OCC1c1ccccc1` (stereo not given), the EC50 was more than 100 µM and the IC50 was found to be 95.5 µM. Consider `Nc1c2c(nc3ccccc13)CCCC2` (tested in a mixture with another compound), for which the EC50 is more than 4170 µM; the concentration for half-maximal inhibition (IC50) is 25.7 µM and 39.8 µM. Turning to `NC(=O)C#CC#CC#CCO`, the EC50 was more than 891 µM and the 50% inhibitory concentration (IC50) stood at 0.479 µM. Consider `CC(=O)c1c(N=[N+]=[N-])c2cccc3c2n(c1=O)CCC3`, for which the EC50 was more than 200 µM and the IC50 amounted to 30.9 µM. In the case of `COc1cc2c(c([N+](=O)[O-])c1)NC(=O)CCS2`, the outcome was inactive. Consider `O=C(Nc1ccc(S(=O)(=O)/N=c2\ncccn2C(=O)C(C(F)(F)F)C(F)(F)F)cc1)C(C(F)(F)F)C(F)(F)F`, for which the EC50 was more than 200 µM and the IC50 was more than 200 µM. Consider `Cc1nnc(NS(=O)(=O)c2ccc(NC(=O)c3ccccc3SC(=O)CCCC[n+]3ccccc3)cc2)s1`, for which the EC50 was 51.3 µM and the IC50 amounted to 55 µM. As for `CNC(=S)NC1CCCCC1NC(=S)NC` (stereo not given), the EC50 was more than 692 µM and the half-inhibitory concentration (IC50) is more than 692 µM. Consider `COc1ccc2nc3cc(Cl)ccc3c(NCCCN(Cc3cc(OC)c(OC)c(OC)c3)Cc3cc(OC)c(OC)c(OC)c3)c2c1`, for which the result was inactive. Turning to `O=C(CCCN1CCN(c2ccccn2)CC1)c1ccc(F)cc1`, the EC50 was more than 132 µM and the IC50 is 72.4 µM. In the case of `CC(=O)Nc1cccc(S(=O)(=O)c2cccc(NC(=O)c3ccccc3SC(=O)CCCC[n+]3ccccc3)c2)c1`, the concentration for a half-maximal effect (EC50) is 17.8 µM and the IC50 was more than 200 µM.

Consider `CCCCCCCCCCCCCCCC(=O)OC1C(O)C(O)C(O)C(O)C12CO2` (stereo not given), for which the EC50 is more than 20 µM and the IC50 is 7.08 µM. As for `CN(C)c1cccc2c(S(=O)(=O)NCCCNCCN)cccc12`, the EC50 is more than 200 µM and the IC50 was determined as 66.1 µM. Taken in the same sequence, the figures for `CCCCCC/C(CC(=O)CCC(=O)NCCc1ccccc1)=N\Nc1ccc([N+](=O)[O-])cc1[N+](=O)[O-]` were more than 97.7 µM and more than 97.7 µM. For the molecule `COC(=O)[C@H](Cc1ccccc1)NC(=O)N(CCNC(=O)OC(C)(C)C)c1ccccc1`, the EC50 is more than 200 µM and the IC50 stood at 102 µM.
